This note sets out measurements from paper PMC12445698 (2025).

What all share (test): ITC
Common to all, as to details: 50 mM KCl, 10 mM MgCl2; 40 mM HEPES pH 7.4

The test system of assay [1] is U38C (RNA, riboswitch) GGGUUGUAUAAGCUCGUUAAUUUGGAAUGAGCGUAUCCACAGGCAACCGUAAAUUGCCCCAGGCUACAAUC
Assay [2] relates to I39C (RNA, riboswitch) GGGUUGUAUAAGCUCGUUAAUUUGGAAUGAGCGUAUCUACCAGGCAACCGUAAAUUGCCCCAGGCUACAAUC
For assay [3], the system named is U38G-I39C (RNA, riboswitch) GGGUUGUAUAAGCUCGUUAAUUUGGAAUGAGCGUAUCGACCAGGCAACCGUAAAUUGCCCCAGGCUACAAUC

In general, Kd refers to the constant that tells how readily two partners part at equilibrium. A low value points to tighter binding. `Nc1nc2[nH]cnc2c(=O)[nH]1`: the Kd in assay [1] was 1.3 µM; in assay [2] it was 0.0017 µM.

For the compound `O=c1[nH]c(=O)c2[nH]cnc2[nH]1`, the results for the equilibrium dissociation constant (Kd) in assay [2] and in assay [3] were 9.79 µM and 14.6 µM, respectively.
